Test results reported in patent US11992012B2, “Diaminotriazine compounds” (BASF SE, priority 2018, dated 2024).

Legend:
Type in all cases: in vivo
Echinocloa crus-galli [1] = experiment: greenhouse post-emergence herbicidal test; conditions: 125 g/ha, scale 0 to 100
Source text: (§1) The culture containers used were plastic flowerpots containing loamy sand with approximately 3.0% of humus as the substrate. The seeds of the test plants were sown separately for each species.
(§2) For the post-emergence treatment, the test plants were first grown to a height of 3 to 15 cm, depending on the plant habit, and only then treated with the active ingredients which had been suspended or emulsified in water. For this purpose, the test plants were either sown directly and grown in the same containers, or they were first grown separately as seedlings and transplanted into the test containers a few days prior to treatment.
(§3) Depending on the species, the plants were kept at 10-25° C. or 20-35° C., respectively.
(§4) The test period extended over 2 to 4 weeks. During this time, the plants were tended, and their response to the individual treatments was evaluated.
(§5) Evaluation was carried out using a scale from 0 to 100. 100 means no emergence of the plants, or complete destruction of at least the aerial moieties, and 0 means no damage, or normal course of growth. A moderate herbicidal activity is given at values of at least 60, a good herbicidal activity is given at values of at least 70, and a very good herbicidal activity is given at values of at least 85.

Setaria viridis = experiment: greenhouse post-emergence herbicidal test; conditions: 125 g/ha, scale 0 to 100
Source text: as §1, §2, §3, §4, §5

Abutilon theophrasti = experiment: greenhouse post-emergence herbicidal test; conditions: scale 0 to 100
Source text: as §1, §2, §3, §4, §5

Lolium multiflorum = experiment: greenhouse pre-emergence herbicidal test; conditions: 250 g/ha, scale 0 to 100
How it was run: (§6)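 Seeds sown in loamy sand (~3.0% humus); compounds suspended or emulsified in water, sprayed directly after sowing, pots covered until rooting. Kept at 10-25° C. or 20-35° C. by species for 2 to 4 weeks. Damage scored visually 0-100 (100 = no emergence or complete aerial destruction).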

Echinocloa crus-galli [2] = experiment: greenhouse pre-emergence herbicidal test; conditions: 250 g/ha, scale 0 to 100
How it was run: as §6

Apera spica-venti = experiment: greenhouse pre-emergence herbicidal test; conditions: 250 g/ha, scale 0 to 100
How it was run: as §6

Amaranthus retroflexus [3] = experiment: greenhouse post-emergence herbicidal test; conditions: 250 g/ha, scale 0 to 100
Source text: as §1, §2, §3, §4, §5

Amaranthus retroflexus [4] = experiment: greenhouse pre-emergence herbicidal test; conditions: 250 g/ha, scale 0 to 100
How it was run: as §6

SMILES | herbicidal activity (Echinocloa crus-galli [1]) | herbicidal activity (Setaria viridis) | herbicidal activity (Abutilon theophrasti; 125 g/ha) | herbicidal activity (Lolium multiflorum) | herbicidal activity (Echinocloa crus-galli [2]) | herbicidal activity (Apera spica-venti) | herbicidal activity (Abutilon theophrasti; 250 g/ha) | herbicidal activity (Amaranthus retroflexus [3]) | herbicidal activity (Amaranthus retroflexus [4])
CC(C)(F)c1nc(N)nc(Nc2c(F)cccc2OCc2ccccc2[N+](=O)[O-])n1 [Example 28] | 85% | 75% | 75% |  |  |  |  |  | 
Cc1ccc(COc2cccc(F)c2Nc2nc(N)nc(C(C)(C)F)n2)cc1F [Example 56] |  |  |  | 100% | 95% |  |  |  | 
Cc1cscc1COc1cccc(F)c1Nc1nc(N)nc(C(C)(C)F)n1 [Example 111] |  |  |  |  | 85% | 80% | 100% | 100% | 
CC(C)(F)c1nc(N)nc(Nc2c(F)cccc2OCc2cc(Cl)sc2Cl)n1 [Example 112] |  |  |  |  | 80% | 80% | 100% | 100% | 
CC(C)(F)c1nc(N)nc(Nc2c(F)cccc2OCc2ccsc2C#N)n1 [Example 121] |  |  |  |  |  |  | 100% | 100% | 80%
